Source: PMC12430443, “Discovery of Novel Benzamide-Based Sigma-1 Receptor Agonists with Enhanced Selectivity and Safety” (Molecules, 2025)

Experiments:
Assay type in all cases: in vitro ADME
[1] = Plasma stability in mouse plasma; details: male CD-1 mouse plasma, 37 °C, read-out: Mouse plasma t1/2 (converted)
Method: Solubility and stability remained unchanged in simulated gastric fluid (SGF) and simulated intestinal fluid (SIF), which mimic gastrointestinal digestion. Intestinal permeability was assessed using a two-chamber system with apical (A, pH 6.5) and basolateral (B, pH 7.4) compartments, representing the luminal and blood/mesenteric lymph sides of the gastrointestinal tract, respectively. […] The efflux ratios for both compounds ranged between 1 and 2, indicating improved permeability relative to the reference compound 1.
Plasma stability was evaluated by M2SV (Lille, France) in duplicate. Male CD-1 mouse plasma (lithium-heparinized; Sera Laboratories International Ltd. BioIVT, West Sussex, UK) was pre-incubated for 10 min at 37 °C before addition of the test compound (final concentration 10 μM, 0.1% DMSO). At 0, 60, 1440, and 2880 min, aliquots were transferred to chilled tubes containing acetonitrile and propranolol (1 μM) as internal standard.

ABST = ABST (Homo sapiens, UniProt Q12908); assay: Transporter inhibition in overexpressing cell lines; details: SLC family, n = 2, read-out: Drug transport inhibition ABST
Method: (§1) Microsomal stability was evaluated using human liver microsomes at 10 µM (Table 3). […] Since cytochrome P450 (CYP) enzymes—especially families 1 to 3—play major roles in drug metabolism, CYP inhibition was tested against the human isoforms CYP1A, 2B6, 2C8, 2C9, 2C19, 2D6, and 3A, as recommended by FDA and EMA guidelines. […] Membrane transport proteins, including the ATP-binding cassette (ABC) and solute carrier (SLC) families, affect drug pharmacokinetics and potential drug–drug interactions. The inhibitory effects of compounds 2 and 6 were assessed against five ABC transporters (P-gp, BCRP, MRP1, MRP2, and MRP3) and seven SLC transporters (OAT1, OAT3, OATP1B1, OCT1, OCT2, ASBT, and NTCP).
(§2) Standardized in vitro ADME experiments were performed by Eurofins Cerep (Poitiers, France). Solubility assays were performed in PBS at pH 7.4, but also in simulated gastric fluid (SGF) and intestinal fluid (SIF), through the classical shake-flask method described by Lipinski et al., using HPLC-UV/VIS technology. The results were expressed in µM. The compound was classically evaluated at 10 µM for all of the ADME analyses. Bidirectional permeability (apical A to basolateral B pH 6.5/7.4, and basolateral B to apical A pH 7.4/6.5) was assessed in the epithelial colorectal adenocarcinoma cell line (Caco-2 cell line). The results were expressed as ×10^−6 cm/s (Papp) and as % recovery. The efflux ratio, i.e., Papp (B→A)/Papp(A→B), was calculated. Plasma protein binding was analyzed by HPLC-MS/MS after 4 h of incubation at 37 °C, as described by Banker et al.. Concentration was evaluated by LC/MS-MS. CYP inhibition was performed in human liver microsomes as described in [28]. Analysis of the respective metabolites was performed by HPLC-MS/MS. Transporter inhibition analysis was also performed in overexpressing cell lines. Respective metabolites for each specific transporter substrate were analyzed by fluorometry or scintillation counting, and % inhibition of control values were calculated. P-glycoprotein transporter substrate assessment was performed by bidirectional permeability analysis (apical A to basolateral B pH 7.4/7.4, and basolateral B to apical A pH 7.4/7.4) in the Caco-2 cell line with and without verapamil, as described in [26]. The results were expressed as ×10^−6 cm/s (Papp) and as % recovery. The efflux ratio was calculated as Papp(B→A)/Papp(A→B). CYP450 induction was assessed in human hepatocytes by measuring the mRNA levels of seven CYP isoforms via qPCR, as described in [40]. The compound was tested at 1, 10, and 100 μM, and fold-induction values were compared with predefined cut-off thresholds for each isoform and hepatocyte lot.

BCRP = BCRP (Homo sapiens, UniProt Q9UNQ0); assay: as above; details: ABC family, n = 2, read-out: Drug transport inhibition BCRP
Method: as §1, §2

MRP1 = MRP1 (Homo sapiens, UniProt P33527); assay: as above; details: ABC family, n = 2, read-out: Drug transport inhibition MRP1
Method: as §1, §2

MRP2 = MRP2 (Homo sapiens, UniProt Q92887); assay: as above; details: ABC family, n = 2, read-out: Drug transport inhibition MRP2
Method: as §1, §2

MRP3 = MRP3 (Homo sapiens, UniProt O15438); assay: as above; details: ABC family, n = 2, read-out: Drug transport inhibition MRP3
Method: as §1, §2

NTCP = NTCP (Homo sapiens, UniProt Q14973); assay: as above; details: SLC family, n = 2, read-out: Drug transport inhibition NTCP
Method: as §1, §2

OAT1 = OAT1 (Homo sapiens, UniProt Q4U2R8); assay: as above; details: SLC family, n = 2, read-out: Drug transport inhibition OAT1
Method: as §1, §2

OATP1B1 = OATP1B1 (Homo sapiens, UniProt Q9Y6L6); assay: as above; details: SLC family, n = 2, read-out: Drug transport inhibition OATP1B1
Method: as §1, §2

OCT1 = OCT1 (Homo sapiens, UniProt O15245); assay: as above; details: SLC family, n = 2, read-out: Drug transport inhibition OCT1
Method: as §1, §2

OCT2 = OCT2 (Homo sapiens, UniProt O15244); assay: as above; details: SLC family, n = 2, read-out: Drug transport inhibition OCT2
Method: as §1, §2

P-gp = P-gp (Homo sapiens, UniProt P08183); assay: as above; details: ABC family, n = 2, read-out: Drug transport inhibition P-gp
Method: as §1, §2

Sequence of OAT1 (Q4U2R8 whole entry): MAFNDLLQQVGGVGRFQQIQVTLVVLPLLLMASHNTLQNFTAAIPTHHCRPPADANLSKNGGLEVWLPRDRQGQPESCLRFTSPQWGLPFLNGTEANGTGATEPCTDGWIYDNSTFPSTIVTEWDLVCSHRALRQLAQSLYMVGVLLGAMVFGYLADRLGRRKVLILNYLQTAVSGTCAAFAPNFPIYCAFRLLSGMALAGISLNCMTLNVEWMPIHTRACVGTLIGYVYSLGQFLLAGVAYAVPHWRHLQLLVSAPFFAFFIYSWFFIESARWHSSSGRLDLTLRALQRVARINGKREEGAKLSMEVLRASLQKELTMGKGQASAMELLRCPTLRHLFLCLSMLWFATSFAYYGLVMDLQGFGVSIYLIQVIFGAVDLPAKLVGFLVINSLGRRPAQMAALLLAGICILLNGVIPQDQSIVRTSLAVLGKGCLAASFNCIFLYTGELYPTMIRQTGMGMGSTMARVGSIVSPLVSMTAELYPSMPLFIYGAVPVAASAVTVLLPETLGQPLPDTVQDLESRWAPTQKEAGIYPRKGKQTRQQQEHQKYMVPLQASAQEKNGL
Sequence of MRP1 (P33527 whole entry): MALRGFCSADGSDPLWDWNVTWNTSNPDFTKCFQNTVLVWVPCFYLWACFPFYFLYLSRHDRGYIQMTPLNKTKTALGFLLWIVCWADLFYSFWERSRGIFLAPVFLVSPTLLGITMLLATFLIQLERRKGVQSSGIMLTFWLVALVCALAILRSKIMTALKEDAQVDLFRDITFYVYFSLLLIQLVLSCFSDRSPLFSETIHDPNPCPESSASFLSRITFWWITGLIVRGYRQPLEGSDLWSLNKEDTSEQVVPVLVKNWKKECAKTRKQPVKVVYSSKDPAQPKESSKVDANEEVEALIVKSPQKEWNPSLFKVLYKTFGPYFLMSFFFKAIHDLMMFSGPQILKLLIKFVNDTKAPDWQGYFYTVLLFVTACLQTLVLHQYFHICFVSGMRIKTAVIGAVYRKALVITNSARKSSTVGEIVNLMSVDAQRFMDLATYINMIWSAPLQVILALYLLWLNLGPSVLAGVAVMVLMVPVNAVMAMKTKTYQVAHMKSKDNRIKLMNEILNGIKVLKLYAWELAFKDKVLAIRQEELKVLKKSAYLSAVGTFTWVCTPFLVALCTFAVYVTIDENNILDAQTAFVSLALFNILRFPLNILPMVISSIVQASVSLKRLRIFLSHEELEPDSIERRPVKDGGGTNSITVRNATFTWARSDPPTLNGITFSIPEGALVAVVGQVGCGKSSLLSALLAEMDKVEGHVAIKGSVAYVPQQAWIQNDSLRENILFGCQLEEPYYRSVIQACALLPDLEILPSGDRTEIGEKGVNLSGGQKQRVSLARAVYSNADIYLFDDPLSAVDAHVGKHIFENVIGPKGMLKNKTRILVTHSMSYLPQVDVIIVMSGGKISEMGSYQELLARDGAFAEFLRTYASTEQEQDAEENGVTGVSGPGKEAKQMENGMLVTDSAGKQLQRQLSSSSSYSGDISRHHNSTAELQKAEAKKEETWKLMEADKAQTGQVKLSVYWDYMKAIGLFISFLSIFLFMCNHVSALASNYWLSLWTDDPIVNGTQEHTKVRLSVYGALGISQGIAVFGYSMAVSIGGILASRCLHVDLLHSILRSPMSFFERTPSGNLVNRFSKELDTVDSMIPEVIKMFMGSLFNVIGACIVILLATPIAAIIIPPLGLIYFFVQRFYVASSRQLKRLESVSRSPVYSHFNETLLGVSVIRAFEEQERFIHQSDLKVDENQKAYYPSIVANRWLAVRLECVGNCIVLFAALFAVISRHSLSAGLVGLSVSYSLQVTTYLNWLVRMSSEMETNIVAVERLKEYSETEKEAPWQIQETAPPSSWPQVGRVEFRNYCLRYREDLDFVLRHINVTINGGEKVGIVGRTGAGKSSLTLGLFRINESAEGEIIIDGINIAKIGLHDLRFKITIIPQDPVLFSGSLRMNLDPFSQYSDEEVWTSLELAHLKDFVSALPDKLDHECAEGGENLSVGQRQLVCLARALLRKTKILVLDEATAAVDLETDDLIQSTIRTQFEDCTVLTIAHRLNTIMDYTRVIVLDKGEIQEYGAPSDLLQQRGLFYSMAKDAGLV
Sequence of OCT1 (O15245 whole entry): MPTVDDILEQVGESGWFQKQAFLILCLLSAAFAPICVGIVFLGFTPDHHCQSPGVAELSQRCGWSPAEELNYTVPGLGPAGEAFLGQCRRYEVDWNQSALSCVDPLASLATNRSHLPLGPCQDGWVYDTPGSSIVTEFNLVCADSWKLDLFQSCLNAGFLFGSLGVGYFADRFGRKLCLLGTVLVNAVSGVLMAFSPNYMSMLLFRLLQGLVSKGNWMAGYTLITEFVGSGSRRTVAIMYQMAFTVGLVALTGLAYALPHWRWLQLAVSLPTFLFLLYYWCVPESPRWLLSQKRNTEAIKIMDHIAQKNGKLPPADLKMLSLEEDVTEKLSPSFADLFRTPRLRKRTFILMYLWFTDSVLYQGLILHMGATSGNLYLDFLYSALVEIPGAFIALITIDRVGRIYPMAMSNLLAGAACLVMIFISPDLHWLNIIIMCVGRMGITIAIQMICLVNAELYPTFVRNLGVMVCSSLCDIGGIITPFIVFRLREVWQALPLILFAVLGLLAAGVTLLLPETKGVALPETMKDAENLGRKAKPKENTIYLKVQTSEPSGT
Sequence of MRP2 (Q92887 whole entry): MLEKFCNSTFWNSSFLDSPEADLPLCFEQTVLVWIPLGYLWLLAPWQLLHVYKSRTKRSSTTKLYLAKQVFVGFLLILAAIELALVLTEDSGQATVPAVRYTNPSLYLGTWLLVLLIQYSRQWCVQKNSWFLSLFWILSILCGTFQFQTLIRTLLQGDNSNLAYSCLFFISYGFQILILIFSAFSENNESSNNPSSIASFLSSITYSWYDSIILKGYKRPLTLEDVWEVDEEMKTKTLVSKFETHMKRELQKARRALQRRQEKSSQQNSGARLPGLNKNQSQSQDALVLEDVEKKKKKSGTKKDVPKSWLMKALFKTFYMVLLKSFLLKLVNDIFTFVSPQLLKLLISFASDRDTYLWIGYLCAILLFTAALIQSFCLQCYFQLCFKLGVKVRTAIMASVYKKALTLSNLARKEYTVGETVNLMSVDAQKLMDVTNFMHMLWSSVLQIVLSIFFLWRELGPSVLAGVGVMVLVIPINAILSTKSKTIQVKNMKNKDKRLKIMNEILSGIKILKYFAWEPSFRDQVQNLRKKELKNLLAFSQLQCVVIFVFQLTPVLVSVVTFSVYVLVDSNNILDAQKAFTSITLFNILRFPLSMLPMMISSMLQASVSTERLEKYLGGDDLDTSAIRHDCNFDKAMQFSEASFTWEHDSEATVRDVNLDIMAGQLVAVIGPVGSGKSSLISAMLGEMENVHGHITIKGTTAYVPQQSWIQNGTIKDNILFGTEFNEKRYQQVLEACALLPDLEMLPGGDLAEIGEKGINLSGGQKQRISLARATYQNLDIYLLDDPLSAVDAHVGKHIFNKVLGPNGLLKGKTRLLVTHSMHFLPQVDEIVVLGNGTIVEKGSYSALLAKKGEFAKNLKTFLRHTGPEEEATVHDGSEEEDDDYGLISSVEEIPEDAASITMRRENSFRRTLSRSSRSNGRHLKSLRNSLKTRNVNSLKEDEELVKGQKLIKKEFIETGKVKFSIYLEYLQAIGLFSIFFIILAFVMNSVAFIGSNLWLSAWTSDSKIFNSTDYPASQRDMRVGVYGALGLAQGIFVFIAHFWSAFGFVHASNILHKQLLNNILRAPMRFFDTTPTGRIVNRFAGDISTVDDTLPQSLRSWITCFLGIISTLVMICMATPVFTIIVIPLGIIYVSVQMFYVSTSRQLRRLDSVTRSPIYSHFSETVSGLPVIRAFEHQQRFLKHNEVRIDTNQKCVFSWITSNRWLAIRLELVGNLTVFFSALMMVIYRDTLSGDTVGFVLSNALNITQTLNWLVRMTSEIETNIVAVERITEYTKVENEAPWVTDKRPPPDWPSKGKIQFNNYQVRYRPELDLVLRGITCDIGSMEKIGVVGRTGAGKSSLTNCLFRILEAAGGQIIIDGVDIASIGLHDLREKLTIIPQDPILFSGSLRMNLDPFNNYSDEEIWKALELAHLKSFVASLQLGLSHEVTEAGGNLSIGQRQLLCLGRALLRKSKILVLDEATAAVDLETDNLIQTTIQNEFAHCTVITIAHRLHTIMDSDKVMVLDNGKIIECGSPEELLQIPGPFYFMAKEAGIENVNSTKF
Sequence of NTCP (Q14973 whole entry): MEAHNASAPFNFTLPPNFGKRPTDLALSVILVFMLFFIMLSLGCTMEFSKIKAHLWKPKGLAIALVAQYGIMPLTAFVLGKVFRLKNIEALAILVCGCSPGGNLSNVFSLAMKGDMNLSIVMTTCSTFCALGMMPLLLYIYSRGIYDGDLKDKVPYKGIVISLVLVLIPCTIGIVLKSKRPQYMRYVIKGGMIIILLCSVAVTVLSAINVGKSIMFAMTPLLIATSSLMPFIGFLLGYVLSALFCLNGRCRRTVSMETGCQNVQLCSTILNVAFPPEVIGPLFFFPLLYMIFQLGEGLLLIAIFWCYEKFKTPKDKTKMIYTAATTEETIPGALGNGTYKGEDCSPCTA
Sequence of ABST (Q12908 whole entry, canonical isoform): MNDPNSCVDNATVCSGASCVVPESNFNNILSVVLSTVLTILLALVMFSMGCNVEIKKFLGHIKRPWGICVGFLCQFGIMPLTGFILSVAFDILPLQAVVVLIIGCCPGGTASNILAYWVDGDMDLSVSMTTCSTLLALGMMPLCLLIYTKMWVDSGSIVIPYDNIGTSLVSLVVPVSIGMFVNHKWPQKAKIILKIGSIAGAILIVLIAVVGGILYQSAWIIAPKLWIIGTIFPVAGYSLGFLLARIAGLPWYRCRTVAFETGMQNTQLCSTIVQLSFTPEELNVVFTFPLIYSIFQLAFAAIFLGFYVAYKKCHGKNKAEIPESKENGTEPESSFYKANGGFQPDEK

SMILES | half-life at 10 µM [1] [h] | inhibition at 10 µM (ABST) [%] | inhibition at 10 µM (BCRP) [%] | inhibition at 10 µM (MRP1) [%] | inhibition at 10 µM (MRP2) [%] | inhibition at 10 µM (MRP3) [%] | inhibition at 10 µM (NTCP) [%] | inhibition at 10 µM (OAT1) [%] | inhibition at 10 µM (OATP1B1) [%] | inhibition at 10 µM (OCT1) [%] | inhibition at 10 µM (OCT2) [%] | inhibition at 10 µM (P-gp) [%]
CN(CCC(=O)NCc1cccc(Cl)c1)Cc1ccccc1 [Compound 2, 3-(Benzylmethylamino)-N-(3-chlorobenzyl)propanamide] | 35 | 21.8 | -9 | -0.3 | 5.6 | 0.7 | 8.7 | -23.1 | 3.9 | 19.9 | 54.1 | 4.7
CN(CCC(=O)NCc1ccc(C#N)cc1)Cc1ccccc1 [Compound 6, 3-(Benzylmethylamino)-N-(4-cyanobenzyl)propanamide] | > 48 | -8.9 | -5.8 | -1.1 | 3.3 | 0.4 | -12.5 | -25.8 | 1.3 | 2.4 | 59.3 | 4.7
